Experiments:
[1] = Pharmacokinetics following single administration in SD rats; settings: male, Sprague-Dawley, rat, in vivo, sc
Experimental: The compound was administrated to male SD rats (230-268 g, n=3) at a dose of 50.0 nmol/kg (s.c.) or 25.0 nmol/kg (i.v.). […] 30.0 μL of thawed plasma sample was taken. 150 μL of acetonitrile solution (containing 5 ng·mL^-1 Verapamil , 50 ng·mL^-1 Glibenclamide, 200 ng·mL^-1 Tolbutamide and 200 ng·mL^-1 Diclofenac) were added to precipitate protein. The mixture was vortexed for 5 minutes, and centrifuged at 3700 rpm for 8 minutes. 70.0 μL of the supernatant was taken, into which 70.0 μL of 0.5% aqueous formic acid solution was added. The mixture was vortexed for 5 minutes. 15 μL of the mixture solution was sampled and injected into the LC-MS/MS to determine the drug concentration in plasma. 20.0 μL of thawed plasma sample was taken. 60 μL of acetonitrile solution (containing 5 ng·mL^-1 Verapamil, 50 ng·mL^-1 Glibenclamide, 200 ng·mL^-1 Tolbutamide and 200 ng·mL^-1 Diclofenac) were added to precipitate protein. […] The mixture was vortexed for 10 minutes. 10.0 μL of the mixture solution was sampled and injected into the LC-MS/MS to determine the drug concentration in plasma. 30.0 μL of thawed plasma sample was taken. 150 μL of acetonitrile solution (containing 5 ng·mL^-1 Verapamil, 50 ng·mL^-1 Glibenclamide, 200 ng·mL^-1 Tolbutamide and 200 ng·mL^-1 Diclofenac) were added to precipitate protein. The mixture was vortexed for 5 minutes, and centrifuged at 3700 rpm for 8 minutes. 70.0 μL of the supernatant was taken, into which 70.0 μL of 0.5% aqueous formic acid solution was added. The mixture was vortexed for 5 minutes. 10.0 μL of the mixture solution was sampled and injected into the LC-MS/MS to determine the drug concentration in plasma. […] Table 5 Pharmacokinetic Parameters after Subcutaneous Injection of Different Polypeptide Compounds to Rats

[2] = Pharmacokinetics in cynomolgus monkeys; settings: cynomolgus monkey, in vivo, sc
Experimental: After subcutaneous or intravenous administration to cynomolgus monkeys, plasma was collected and the drug concentration in plasma was determined to illustrate the in vivo pharmacokinetic properties of the compound according to the present invention. […] 70.0 µL of thawed plasma sample was taken. 70 µL of acetonitrile (containing 1 ng/ml of the internal standard) was added to precipitate protein. […] The mixture was vortexed for 5 minutes. 10 µL of the mixture solution was sampled and injected into the LC-MS/MS to determine the drug concentration in plasma. […] Table 9 Average Pharmacokinetic Parameters after Single Subcutaneous Administration to Cynomolgus Monkeys

db/db mice = assay: Multiple administration experiment on db/db mice; format: in vivo; settings: db/db mice, s.c. every 3 days for 4 weeks, Mean±SEM, 6 mice
Experimental: "Minimum effective dose" as disclosed in the present invention refers to the minimum administration dose at which the drug effect is produced.
"Efficacy dose" as disclosed in the present invention refers to the administration dose at which the drug effect is produced.
In this study, 7-8 week old male db/db mice were used. The db/db mice were placed in an individual ventilated cage (IVC) facility with a controlled temperature (20-26°C) and humidity (40-70%) and a controlled 12:12 h light-dark cycle. The mice received food and water ad libitum. Blood were sampled at the tail tip, and the base blood glucose was measured by a Roche blood glucose meter. The mice were randomly divided into groups according to the initial blood glucose and initial body weight (n=6/group), and each group had similar body weight and blood glucose.
The mice were subcutaneously administrated every 3 days for 4 weeks. Subcutaneous administration was conducted on days 1, 4, 7, 10, 13, 16, 19, 22 and 25. Random blood glucose was recorded every 3 days throughout the study. On day 28, the fasting blood glucose was measured. Then the blood was collected by orbital blood sampling. After the orbital blood sampling, the animals were sacrificed, and the liver was taken and weighed. After 1 to 2 hours, the collected blood was centrifuged at 3000 rpm for 10 min to separate the serum. Biochemical indicators such as triglyceride (TG), alanine aminotransferase (ALT), and total bilirubin (TBIL) were determined with a biochemical analyzer. The data results were statistically analyzed using GraphPad Prism8, and the statistical differences among the groups were analyzed following T-Test. Significant differences were identified at p<0.05.

Row | SMILES | Tmax [1] [h] | half-life [1] [h] | Tmax [2] [h] | half-life [2] [h] | AUC 4-25 day Glu (db/db mice; 3 nmol/kg) [mmol·days/L] | D28 FBG(Fasting Blood Glucose) (db/db mice; 3 nmol/kg) [mmol/L] | Liver Weight (db/db mice; 3 nmol/kg) [g] | Serum ALT (db/db mice; 3 nmol/kg) [U/L] | Serum TBIL (db/db mice; 3 nmol/kg) [µmol/L] | Serum TG (db/db mice; 3 nmol/kg) [mmol/L] | AUC 4-25 day Glu (db/db mice; 10 nmol/kg) [mmol·days/L] | D28 FBG(Fasting Blood Glucose) (db/db mice; 10 nmol/kg) [mmol/L] | Liver Weight (db/db mice; 10 nmol/kg) [g] | Serum ALT (db/db mice; 10 nmol/kg) [U/L] | Serum TBIL (db/db mice; 10 nmol/kg) [µmol/L] | Serum TG (db/db mice; 10 nmol/kg) [mmol/L] | AUC 4-25 day Glu (db/db mice; 30 nmol/kg) [mmol·days/L] | D28 FBG(Fasting Blood Glucose) (db/db mice; 30 nmol/kg) [mmol/L] | Liver Weight (db/db mice; 30 nmol/kg) [g] | Serum ALT (db/db mice; 30 nmol/kg) [U/L] | also measured
1 | CC[C@H](C)[C@H](NC(=O)C(C)(C)NC(=O)[C@H](Cc1ccc(O)cc1)NC(=O)[C@H](CC(=O)O)NC(=O)[C@H](CO)NC(=O)[C@@H](NC(=O)C(C)(Cc1ccccc1)NC(=O)[C@@H](NC(=O)CNC(=O)[C@H](CCC(=O)O)NC(=O)C(C)(C)NC(=O)[C@@H](N)Cc1ccc(O)cc1)[C@@H](C)O)[C@@H](C)O)C(=O)NC(C)(C)C(=O)N[C@@H](CC(C)C)C(=O)N[C@@H](CC(=O)O)C(=O)N[C@@H](CCCCN)C(=O)N[C@@H](CCC(N)=O)C(=O)N[C@@H](C)C(=O)N[C@@H](CCC(N)=O)C(=O)N[C@@H](C)C(=O)N[C@@H](CCC(=O)O)C(=O)N[C@@H](Cc1ccccc1)C(=O)N[C@H](C(=O)N[C@@H](CCCCN)C(=O)N[C@@H](Cc1c[nH]c2ccccc12)C(=O)N[C@@H](CC(C)C)C(=O)N[C@@H](CC(C)C)C(=O)N[C@@H](CCCCNC(=O)COCCOCCNC(=O)COCCOCCNC(=O)CC[C@H](NC(=O)CCCCCCCCCCCCCCCCCCCCC(=O)O)C(=O)O)C(=O)NCC(=O)NCC(=O)N1CCC[C@H]1C(=O)N[C@@H](CO)C(=O)N[C@@H](CO)C(=O)NCC(=O)N[C@@H](C)C(=O)N1CCC[C@H]1C(=O)N1CCC[C@H]1C(=O)N1CCC[C@H]1C(=O)N[C@@H](CO)C(=O)N[C@@H](CCCCN)C(N)=O)C(C)C (some centres unmarked) [Compound P017] | 24 | 18.7 ± 2.69 | 48 ± 24 | 44.3 ± 4.8 | 303.78 ± 33.24 | 11.68 ± 1.7 | 2.14 ± 0.08 | 105.16±7.1 | 0.88 ± 0.26 | 1.58 ± 0.17 | 249.65 ± 47.65 | 11.95 ± 2.51 | 2.11 ± 0.09 | 141.65±12.72 | 1.59 ± 0.07 | 1.19 ± 0.05 | 294.96 ± 11.96 | 10.08 ± 0.79 | 2.35 ± 0.09 | 176.48±51.6 | Serum TBIL (db/db mice; 30 nmol/kg): 1.11 ± 0.1 µmol/L; Serum TG (db/db mice; 30 nmol/kg): 1.09 ± 0.06 mmol/L
2 | CC[C@H](C)[C@H](NC(=O)C(C)(C)NC(=O)[C@H](Cc1ccc(O)cc1)NC(=O)[C@H](CC(=O)O)NC(=O)[C@H](CO)NC(=O)[C@@H](NC(=O)C(C)(Cc1ccccc1)NC(=O)[C@@H](NC(=O)CNC(=O)[C@H](CCC(=O)O)NC(=O)C(C)(C)NC(=O)[C@@H](N)Cc1ccc(O)cc1)[C@@H](C)O)[C@@H](C)O)C(=O)NC(C)(C)C(=O)N[C@@H](CC(C)C)C(=O)N[C@@H](CC(=O)O)C(=O)N[C@@H](CCCCN)C(=O)N[C@@H](CCC(N)=O)C(=O)N[C@@H](C)C(=O)N[C@@H](CCC(N)=O)C(=O)N[C@@H](C)C(=O)N[C@@H](CCC(=O)O)C(=O)N[C@@H](Cc1ccccc1)C(=O)N[C@H](C(=O)N[C@@H](CCCCN)C(=O)N[C@@H](Cc1c[nH]c2ccccc12)C(=O)N[C@@H](CC(C)C)C(=O)N[C@@H](CC(C)C)C(=O)N[C@@H](CCCCNC(=O)COCCOCCNC(=O)COCCOCCNC(=O)COCCOCCNC(=O)CC[C@H](NC(=O)CCCCCCCCCCCCCCCCCCCCC(=O)O)C(=O)O)C(=O)NCC(=O)NCC(=O)N1CCC[C@H]1C(=O)N[C@@H](CO)C(=O)N[C@@H](CO)C(=O)NCC(=O)N[C@@H](C)C(=O)N1CCC[C@H]1C(=O)N1CCC[C@H]1C(=O)N1CCC[C@H]1C(=O)N[C@@H](CO)C(=O)N[C@@H](CCCCN)C(N)=O)C(C)C (some centres unmarked) [Compound P020] | 24 | 17.9 ± 0.57 | 22.7 ± 10.1 | 67.4 ± 9.47 | 268.28 ± 24.64 | 9.6 ± 1.32 | 2.03 ± 0.09 | 214.56±43.83 | 1.54 ± 0.25 | 1.37 ± 0.12 | 290.78 ± 27.25 | 10.7 ± 1.62 | 2.09 ± 0.1 | 113.48±24.18 | 0.91 ± 0.05 | 1.07 ± 0.03 | 184.18 ± 22.44 | 8.22 ± 1.07 | 1.83 ± 0.16 | 112.47±16.69 | Serum TBIL (db/db mice; 30 nmol/kg): 0.95 ± 0.28 µmol/L; Serum TG (db/db mice; 30 nmol/kg): 1.2 ± 0.07 mmol/L
